Values joined by “and” are separate entries in the source; they are usually repeats but may differ in a detail not shown here. Equal values may be shown once. Read-outs that look alike come from different tables or passages of the source. Marks after values point to notes of the source that are not given here.
Legend:
16/C Mammary Tumor = assay type: in vivo, mice
P388/CPA = assay type: in vivo, mice
L1210/0 = assay type: in vivo, mice
human lox-IMVI melanoma = assay type: in vivo, mice
B16 Melanoma = tested on: B16 Melanoma; parameters: species or system mice; conditions: mouse, in vivo
Lewis Lung Carcinoma = tested on: Lewis Lung Carcinoma; parameters: species or system mice; conditions: mouse, in vivo
P388/0 = assay type: in vivo, mice
[1] = tested on: human MX-1 mammary tumors; assay type: in vivo, mice
L1210/CPA = assay type: in vivo, mice
MX-1 Human Breast Tumor = conditions: mouse, in vivo, ip
[2] = Single dose intravenous toxicity of IPM in rats; assay type: in vivo
[3] = Single dose intravenous toxicity of IPM in mice; assay type: in vivo
[4] = Acute toxicity, three daily IV bolus injections in mice (IPM lysine salt, IPM parent control); assay type: in vivo; conditions: 150 mg/kg IV daily × 3
Experimental: This example describes the evaluation of the acute toxicity of isophosphoramide mustard lysine salt, following three days of daily intravenous (bolus) injection in mice. This study consisted of two phases.
The second main study phase consisted of eight treatment groups (five mice/sex/group) that received the test article as a single daily dose for three consecutive days at respective dose levels of 50, 75, 100, 200, 300, 400, 500, and 600 mg/kg. An additional group (5 mice/sex) served as a parent compound control and received the isophosphoramide mustard parent compound in the same manner, at a dose level of 150 mg/kg. The vehicle was 0.9% sodium chloride for injection, USP and all doses were at a constant volume of 15 mL/kg.
Observations for mortality, morbidity, and the availability of food and water were conducted twice daily for all animals. Observations for clinical signs were conducted daily during the study (approximately one and four hours postdose on Days 1, 2, and 3, and once daily on non-dosing days). Body weights for all surviving animals were measured and recorded the second day after receipt, prior to randomization, and on Days-1 and 7. Body weights also were measured on all surviving main study phase animals on Day 14. Macroscopic evaluations were performed on each main study animal at necropsy (Day 15).
Eight main study treatment groups received the test article as a single daily dose for three consecutive days via intravenous (bolus) injection at respective dose levels of 50, 75, 100, 200, 300, 400, 500, and 600 mg/kg. An additional group (five mice/sex) served as a parent compound control and received the Isophosphoramide Mustard Parent Compound in the same manner at a dose level of 150 mg/kg. All doses were at a volume of 15 mL/kg and based on the most recent body weight.

[5] = Single dose oral toxicity of IPM in rats; assay type: in vivo; conditions: for oral LD50: single dose
[6] = Sub-acute IV (3-day) toxicity of IPM in mice; assay type: in vivo; conditions: for dose with kidney tubular necrosis / dose with severe bone marrow depletion / intravenous LD10 / intravenous LD50: IV daily × 3 days
Excerpt: Multiple daily dose Administrations—IV and IP—have been studied in mice and dogs. Sub-acute intravenous (3-day) dosing in the mouse and dog has provided the toxicology/pharmacokinetic information regarding toxicities and drug disturbances that were utilized in designing the administration and dose schedules in humans.

[7] = Single dose oral toxicity of IPM in mice; assay type: in vivo
M5076 Sarcoma = test: SC implanted M5076 sarcoma; assay type: in vivo, mice; conditions: days 11-15
Lewis lung murine tumor = conditions: mouse, in vivo, ip
[8] = Estimated comparable human intravenous dosages

## O=P1(N(CCCl)CCCl)NCCCO1 (stereo not shown) [Cyclophosphamide, cyclophosphamide]
16/C Mammary Tumor; 30 mg/kg IP, Q 1dx 4 day 7
  Days Delay (T-C): 0.4 days
  Days to 2 Doublings: 3.6 days
16/C Mammary Tumor; 40 mg/kg IP, Q 1dx 4 day 7
  Days Delay (T-C): 1.2 days
  Days to 2 Doublings: 4.4 days
16/C Mammary Tumor; 50 mg/kg IP, Q 1dx 4 day 7
  Days Delay (T-C): 4.0 days
  Days to 2 Doublings: 7.2 days
16/C Mammary Tumor; 60 mg/kg IP, Q 1dx 4 day 7
  Days Delay (T-C): 4.5 days
  Days to 2 Doublings: 7.7 days
P388/CPA; 175 mg/kg IP, day 1 only
  % ILS (dying mice only): +35%
  Day 60 survivors/total: 0/10
  Net log10 reduction in tumor burden after therapy: 3
P388/CPA; 265 mg/kg IP, day 1 only
  % ILS (dying mice only): +35%
  Day 60 survivors/total: 0/10
  Net log10 reduction in tumor burden after therapy: 3
L1210/0; 200 mg/kg IP, day 2 only
  % ILS (dying mice only): +107%
  Day 60 survivors/total: 0/10
  Net log10 reduction in tumor burden after therapy: 7
Human lox-IMVI melanoma; 40 mg/kg/dose IV, Q1DX5
  % ILS: +121%
  Median Day of Death: 42.0
B16 Melanoma
  % ILS: 68%
  T-C: 27 days
  Tumor-free survivors: 5/10
Lewis Lung Carcinoma
  % ILS: 68%
  Log kill total: >6.8
  T-C (tumor growth delay): 27 days
  Tumor-free survivors: 5/10
P388/0; 175 mg/kg IP, day 1 only
  % ILS (dying mice only): +130%
  Day 60 survivors/total: 4/10
  Net log10 reduction in tumor burden after therapy: 7
P388/0; 265 mg/kg IP, day 1 only
  % ILS (dying mice only): +280%
  Day 60 survivors/total: 7/10
  Net log10 reduction in tumor burden after therapy: 7
[1]; 60 mg/kg IP, Q 1dx 5 day 12
  Days Delay (T-C): >40.5 days
  Days to 2 Doublings: >48.0 days
L1210/CPA; 200 mg/kg IP, day 2 only
  % ILS (dying mice only): +57%
  Day 60 survivors/total: 0/10
  Net log10 reduction in tumor burden after therapy: 4

## O=P1(NCCCl)OCCCN1CCCl (stereo not shown) [Ifosfamide, ifosfamide]
16/C Mammary Tumor; mouse, in vivo
  Days to 2 Doublings: 4.6 days and 4.9 days and 3.8 days and 4.0 days
P388/CPA; mouse, in vivo
  Day 60 survivors/total: 0/10
  Net log10 reduction in tumor burden after therapy: 4
L1210/0; mouse, in vivo
  Day 60 survivors/total: 0/10 and 0/9
  Net log10 reduction in tumor burden after therapy: 8
B16 Melanoma
  % ILS: 55%
  T-C: 18 days
  Tumor-free survivors: 7/10
Lewis Lung Carcinoma
  % ILS: 55%
  Log kill total: >4.5
  T-C (tumor growth delay): 18 days
  Tumor-free survivors: 7/10
P388/0; mouse, in vivo
  Day 60 survivors/total: 7/10
  Net log10 reduction in tumor burden after therapy: 7
L1210/CPA; mouse, in vivo
  Day 60 survivors/total: 0/10

## O=P(O)(NCCCl)NCCCl [IPM, isophosphoramide mustard]
MX-1 Human Breast Tumor
  MTD Dosage: 40.0 mg/kg/dose
  T-C: 2.1* days
[2]; female rats
  single dose intravenous LD50: 400 mg/kg
[2]; male rats
  single dose intravenous LD50: 567 mg/kg
16/C Mammary Tumor; mouse, in vivo
  Days Delay (T-C): 6.3 days and 5.2 days and 4.2 days
  Days to 2 Doublings: 9.5 days and 8.5 days and 7.4 days
P388/CPA; mouse, in vivo
  Day 60 survivors/total: 0/10
  Net log10 reduction in tumor burden after therapy: 7
[3]; female mice
  single dose intravenous LD50: 484 mg/kg
[3]; male mice
  single dose intravenous LD50: 929 mg/kg
L1210/0; mouse, in vivo
  % ILS (dying mice only): +128%
  Day 60 survivors/total: 0/10
  Net log10 reduction in tumor burden after therapy: 8
[4]
  Cumulative Mortality, female: 4/5
  Cumulative Mortality, male: 1/5
[4]; listed as IPM parent compound
  Cumulative Mortality, total: 5 of 10 and 5/10
[5]; female rats
  oral LD50: 2786 mg/kg
[5]; male rats
  oral LD50: 4443 mg/kg
[5]; oral, range over mice and rats
  oral LD50 range: 1400 to 3500 mg/kg
[5]; rats, both sexes combined
  oral LD50: 3560 mg/kg
Dog
  Sub-acute IV LD10: 5 mg/kg/day
dog, in vivo
  survival: (100% survival)
dog, in vivo, iv
  MTD: 5 mg/kg/day
Human lox-IMVI melanoma; mouse, in vivo
  % ILS: +52%
  Median Day of Death: 29.0
[6]; 75 mg/kg, either sex
  treatment-related microscopic findings: No obvious treatment-related microscopic findings
[6]; Mouse
  Sub-acute IV LD10: 119 mg/kg/day
[6]; female mice
  dose with kidney tubular necrosis: ≥ 133 mg/kg
  dose with severe bone marrow depletion: ≥ 133 mg/kg
  intravenous LD10: 125 mg/kg
  intravenous LD50: 132 mg/kg
[6]; male mice
  dose with kidney tubular necrosis: ≥ 237 mg/kg
  dose with severe bone marrow depletion: ≥ 178 mg/kg
  intravenous LD10: 168 mg/kg
  intravenous LD50: 176 mg/kg
[6]; mice, combined sexes
  intravenous LD10: 119 mg/kg
[7]; female mice
  oral LD50: 1962 mg/kg
[7]; male mice
  oral LD50: 1014 mg/kg
[7]; mice, both sexes combined
  oral LD50: 1432 mg/kg
B16 Melanoma
  % ILS: 34%
  Inhibition of B16 melanoma growth compared with CPA and Ifos: slightly inferior to CPA but better than Ifos
  T-C: 8.4 days
  Tumor-free survivors: 6/10
M5076 Sarcoma; 18 mg/kg IP daily
  Days Delay (T-C): 1 days
  Days To 2 doublings: 10.3 days
M5076 Sarcoma; 27 mg/kg IP daily
  Days Delay (T-C): 3.3 days
  Days To 2 doublings: 12.6 days
M5076 Sarcoma; 40 mg/kg IP daily
  Days Delay (T-C): 6.1 days
  Days To 2 doublings: 15.4 days
Lewis lung murine tumor
  MTD Dosage: 40.0 mg/kg/dose
  T-C: 12.5* days
[8]; estimated from dog sub-acute IV value
  Comparable Human IV Dosage: 100 mg/m^2/d
[8]; estimated from mouse sub-acute IV LD10
  Comparable Human IV Dosage: 30 mg/m^2/d
[8]; for three days, from dog MTD
  corresponding safe starting dose in humans: 100 mg/m^2 per day
Lewis Lung Carcinoma
  % ILS: 34%
  Log kill total: >2.1
  T-C (tumor growth delay): 8.4 days
  Tumor-free survivors: 6/10
P388/0; mouse, in vivo
  Day 60 survivors/total: 0/9 and 1/10
[1]; mouse, in vivo
  Days to 2 Doublings: 26.5 days and 14.2 days
L1210/CPA; mouse, in vivo
  % ILS (dying mice only): +114%
  Day 60 survivors/total: 1/10
  Net log10 reduction in tumor burden after therapy: 7

Source: patent US8664201B2 (priority 2008, dated 2014)
